Where two headings read alike, the source gives them in different places.
Experiments:
[1] = test system: CT26 colon cancer allografts; assay: Anticancer activity against CT26 allografts in Balb/c mice; type: in vivo; conditions: iv, equimolar to 9 mg/kg oxaliplatin; for anticancer activity against CT26 tumors (in words): twice a week for 2 weeks
Protocol: Every day, the animals were monitored for body weight and the enhanced stress level, and the tumor size was measured using a caliper according to the formula length × width^2/2.

[2] = Organ distribution of platinum in SKOV3-bearing SCID mice; conditions: 24 h after single iv dose equimolar to 9 mg/kg oxaliplatin
Protocol: For tissue digestion, approx. 25–50 mg of tissue was weighed into perfluoralkoxy tubes, and 2 mL of HNO3 and 100 μL H2O2 (30%, Suprapur, Merck, Darmstadt, Germany) were added. The solutions were placed on a hot plate and heated up for 7 h using a temperature program with a maximum of 200 °C. The liquids were transferred to 15 mL tubes with the remaining solution being removed by washing twice with 4 mL of ultrapure water.
Platinum concentrations were measured using an Agilent 7800 ICP-QMS instrument (Agilent Technologies, Tokyo, Japan) equipped with an Agilent SPS 4 autosampler (Agilent Technologies, Tokyo, Japan) and a MicroMist nebulizer at a sample uptake rate of approx. 0.2 mL/min. […] All of the measured samples were blank corrected (for the cell culture data, wells containing no cells were used). Elemental standard solutions were purchased from Labkings (Hilversum, The Netherlands). The instrument was tuned on a daily basis.
SKOV3 cells (1.5 × 10^6 cells in 50 μL serum-free medium) were injected subcutaneously into the right flank of male SCID mice. […] Then, the animals were sacrificed by cervical dislocation, and tumors and organs were collected for the measurement with ICP–MS. For plasma isolation, blood was collected in ethylenediaminetetraacetic acid (EDTA)-coated tubes and centrifuged for 10 min at 900g at 4 °C. Plasma was transferred to a new tube and centrifuged once more to remove residual red blood cells.

[3] = test system: murine CT26 colon cancer cells; assay: MTT cytotoxicity assay in CT26 cells; type: cell-based
Protocol: (§1) Cells were additionally incubated with 5-fold equimolar concentrations of ascorbic acid to increase the reduction rate of the compounds. Cell viability was measured by the MTT-based vitality assay (EZ4U; Biomedica, Vienna, Austria), following the manufacturer’s recommendations.

[4] = test system: human HCT116 colon cancer cells; assay: MTT cytotoxicity assay in HCT116 cells; type: cell-based
Protocol: as §1

[5] = test system: human embryonic kidney cells (HEK293); assay: MTT cytotoxicity assay in non-malignant HEK293 cells; type: cell-based; conditions: 72 h
Protocol: (§2) The cells were seeded at 3500–6000 cells/well in 96-well plates depending on the proliferation rate of the respective cell line and allowed to recover for 24 h. Subsequently, the cells were treated at indicated concentrations for 48 or 72 h. Cells were additionally incubated with 5-fold equimolar concentrations of ascorbic acid to increase the reduction rate of the compounds. Cell viability was measured by the MTT-based vitality assay (EZ4U; Biomedica, Vienna, Austria), following the manufacturer’s recommendations.

[6] = test system: human hepatic cell line (WRL68); assay: MTT cytotoxicity assay in non-malignant WRL68 cells; type: cell-based; conditions: 72 h
Protocol: as §2

[7] = test system: VM7 melanoma cancer cells; assay: MTT cytotoxicity assay in VM7 cells; type: cell-based, human; conditions: 72 h
Protocol: as §2

human SKOV3 cancer cells = assay: MTT cytotoxicity assay in SKOV3 cells; type: cell-based; conditions: 72 h incubation
Protocol: as §2

SKOV3 cancer cells = assay: Long-term cytotoxicity assay (crystal violet) in SKOV3 cells; type: cell-based, human; conditions: 168 h, crystal violet stain, mean ± SD
Protocol: SKOV3 cells were seeded in duplicates at 5000 cells/well in 24-well plates and allowed to recover for 24 h. Subsequently, the cells were treated at the indicated concentrations for 168 h. Cells were fixed with ice-cold methanol (20 min at 4 °C), washed with PBS, and stained with crystal violet. Subsequently, colony formation was inspected, and the fluorescence signal was detected using Typhoon Trio imager (GE Healthcare, Little Chalfont, UK) at 610/30 nm BP and analyzed by ImageJ software.

[8] = log D7.4 determination by shake flask method and ICP-MS; type: physicochemical; conditions: n-octanol/phosphate buffer pH 7.4, Pt by ICP-MS
Protocol: 50 mM stock solutions of the succinimide complexes in DMF were diluted in phosphate buffer (20 mM, pH 7.4, pre-saturated with n-octanol) to a final concentration of 50 μM drug and 0.1% DMF. The platinum content of these aqueous solutions was measured by ICP–MS (see above). The solutions were mixed 1:1 with n-octanol and shaken on a 360° rotatable rack for 3 h. The solutions were centrifuged for 5 min (860g, RT), the aqueous layers were carefully removed, and their Pt content was measured by ICP–MS. Experiments were performed and measured in duplicates, and averages were used for further calculations. log D7.4 values were calculated by the following equation [drawing 1]

[9] = UHPLC reduction experiments with L-ascorbic acid; type: physicochemical; conditions: 1 mM complex, 10-fold excess AA, phosphate buffer pH 7.4, 1% DMF, 20 °C
Protocol: The platinum(IV)–succinimide complexes were dissolved in 2% DMF in phosphate buffer (500 mM, pH 7.4) to a final concentration of 2 mM. The solutions were then mixed 1:1 with a 20 mM stock of L-ascorbic acid in phosphate buffer (500 mM, pH 7.4) to obtain final concentrations of 1 mM complex, 10 mM L-ascorbic acid, and 1% DMF. The samples were incubated at 20 °C and measured on a Dionex UltiMate 3000 RS UPLC system with a Waters Acquity UPLC BEH C18 column (3 × 50 mm, pore size 1.7 μm) and absorption detection at 220 nm. Data points were taken at t = 0 and every 30 min for 6 h.

albumin = target: T1, albumin (Bos taurus, UniProt P02769); assay: SEC-ICP-MS albumin binding and serum stability in fetal calf serum; type: in vitro ADME; conditions: FCS + 150 mM phosphate buffer pH 7.4, 37 °C
T1 construct: FCS was purchased from Sigma-Aldrich and buffered with 150 mM phosphate buffer (pH 7.4); tissue Sigma-Aldrich; host or cells: fetal calf serum
Protocol: FCS was purchased from Sigma-Aldrich and buffered with 150 mM phosphate buffer (pH 7.4) to guarantee a stable pH. The maleimide-bearing platinum(IV) complexes were dissolved in 10% DMF in 150 mM phosphate buffer (pH 7.4) to 1 mM and diluted 1:10 in serum to obtain a final concentration of 100 μM. The samples were then incubated in the autosampler at 37 °C for 24 h and analyzed every 1 h. Between each sample, a pure water blank was measured. For SEC–ICP–MS measurements, an Agilent 1260 Infinity system coupled to an Agilent 7800 ICP–MS equipped with a dynamic reaction cell was used. Oxygen (purity 5.5, Messer Austria GmbH, Gumpoldskirchen, Austria) was used as reaction gas.

SKOV3 cell lysates = assay: Reduction and 1-MDT release in SKOV3 lysates; type: in vitro ADME, human; conditions: 100 μM, 37 °C
Protocol: SKOV3 cells were grown in four T225 […] cell culture flasks to reach a high cell number. On the day of cell lysate isolation, cells were washed with PBS, scraped from the surface, and centrifuged. Each cell pellet was lysed in ∼160 μL lysis buffer (15 mM NaCl 0.5% Triton X, ultrapure) and incubated on ice for 1 h. The samples were then centrifuged for 15 min at 14,000 rpm (4 °C), and the cleared lysate was pooled and kept at −80 °C until analysis. Cell lysates were treated with 2 mM stock solutions of respective complexes in 4% DMF and phosphate buffer (100 mM, pH 7.4) to obtain a final compound concentration of 100 μM and incubated at 37 °C. After 0, 4, 24, and 72 h, three volume equivalents of cold MeOH were added to sample aliquots. Samples were stored at 4 °C for 10 min and centrifuged (15,080g, 4 °C, 10 min). LC–MS analysis of the supernatant was performed on an Agilent 1260 Infinity system using a Waters Atlantis T3 column (150 mm × 4.6 mm) and absorption detection at 230 nm, coupled to a Bruker amaZon SL ESI-IT mass spectrometer. Milli-Q water, containing 0.1% formic acid, and acetonitrile, containing 0.1% formic acid, were used as eluents. A gradient of 1–99% acetonitrile in 20 min was used.

[10] = 48 h incubation, with 5 equiv AA, read-out: CT26 IC50 values +AA, mean ± SD
[11] = 48 h incubation, without AA, read-out: CT26 IC50 values, mean ± SD
[12] = 72 h incubation, with 5 eq. AA, read-out: CT26 IC50 values + 5 eq. AA, mean
[13] = 72 h incubation, without AA, read-out: CT26 IC50 values, mean
[14] = 48 h incubation, with 5 equiv AA, read-out: HCT116 IC50 values +AA, mean ± SD
[15] = 48 h incubation, without AA, read-out: HCT116 IC50 values, mean ± SD
[16] = 72 h incubation, with 5 eq. AA, read-out: HCT116 IC50 values + 5 eq. AA, mean
[17] = 72 h incubation, without AA, read-out: HCT116 IC50 values, mean
[18] = with 5 eq. AA, read-out: SKOV3 IC50 values + 5 eq. AA, mean
[19] = without AA, read-out: SKOV3 IC50 values, mean

T1 sequence (P02769 25-607): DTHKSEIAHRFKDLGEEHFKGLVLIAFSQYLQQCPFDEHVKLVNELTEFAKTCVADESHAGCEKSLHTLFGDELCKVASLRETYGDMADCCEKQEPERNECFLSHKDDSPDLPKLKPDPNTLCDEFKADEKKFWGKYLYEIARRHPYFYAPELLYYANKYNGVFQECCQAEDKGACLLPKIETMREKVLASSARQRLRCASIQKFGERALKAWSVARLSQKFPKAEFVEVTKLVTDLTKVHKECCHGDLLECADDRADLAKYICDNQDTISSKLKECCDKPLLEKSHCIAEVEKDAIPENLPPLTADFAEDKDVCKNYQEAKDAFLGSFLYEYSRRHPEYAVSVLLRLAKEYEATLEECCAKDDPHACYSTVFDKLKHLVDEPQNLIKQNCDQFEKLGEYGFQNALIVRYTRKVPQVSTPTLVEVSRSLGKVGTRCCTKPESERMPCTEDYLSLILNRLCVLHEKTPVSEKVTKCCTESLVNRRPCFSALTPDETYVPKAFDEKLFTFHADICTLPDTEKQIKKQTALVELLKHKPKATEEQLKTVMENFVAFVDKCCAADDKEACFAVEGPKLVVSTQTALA

SMILES | anticancer activity against CT26 tumors (in words) [1] | platinum levels in blood plasma [2] [mg/kg] | IC50 [3, 10] [µM] | IC50 [3, 11] [µM] | IC50 [3, 12] [µM] | IC50 [3, 13] [µM] | IC50 [4, 14] [µM] | IC50 [4, 15] [µM] | IC50 [4, 16] [µM] | IC50 [4, 17] [µM] | IC50 [5] [µM] | IC50 [6] [µM] | IC50 [7] [µM] | ratio (IC50 without AA / with AA), CT26 ([3]; 48 h) | ratio (IC50 without AA / with AA), CT26 ([3]; 72 h) | ratio (IC50 without AA / with AA), HCT116 ([4]; 48 h) | ratio (IC50 without AA / with AA), HCT116 ([4]; 72 h) | IC50 (human SKOV3 cancer cells; [18]) [µM] | IC50 (human SKOV3 cancer cells; [19]) [µM] | IC50 (SKOV3 cancer cells) [µM] | also measured
Cn1cc(C[C@@H](NC(=O)[O][Pt]2([O]C(=O)NCCCCCN3C(=O)C=CC3=O)[O]C(=O)C(=O)[O]2)C(=O)O)c2ccccc21.N[C@@H]1CCCC[C@H]1N [MalCa/IdoCa, (OC-6-24)-[(R)-(1-Carboxy-2-(1-methyl-1H-indol-3-yl)ethyl)carbamato][(1R,2R)-1,2-cyclohexanediamino][5-(2,5-dioxo-2,5-dihydro-1H-pyrrol-1-yl)pentylcarbamato]oxalatoplatinum(IV)] | significant anticancer activity | 6.4 |  |  |  |  |  |  |  |  |  |  |  |  |  |  |  |  |  |  | activity directly compared to oxaliplatin: tumor growth and overall survival [1]: superior to oxaliplatin; Platinum ratio tumor:kidney ([2]; ratio of mean platinum levels): 0.5; Platinum ratio tumor:liver ([2]; ratio of mean platinum levels): 0.5
Cn1cc(CC([NH3+])C(=O)[O][Pt]23([O]C(=O)CCCCCN4C(=O)C=CC4=O)([NH]C4CCCCC4[NH]2)[O]C(=O)C(=O)[O]3)c2ccccc21.O=C([O-])C(F)(F)F [MalEs/IdoEs, (OC-6-44)-[(R)-2-Ammonio-3-(1-methyl-1H-indol-3-yl)propanoato][(1R,2R)-1,2-yclohexanediamino][6-(2,5-dioxo-2,5-dihydro-1H-pyrrol-1-yl)hexanoato]oxalatoplatinum(IV) Trifluoroacetate] | inactive | 3.7 |  |  |  |  |  |  |  |  |  |  |  |  |  |  |  |  |  |  | 
CC(=O)[O][Pt]1([O]C(C)=O)[O]C(=O)C(=O)[O]1.N[C@@H]1CCCC[C@H]1N [OAc/OAc, reference compound] |  |  | 22.6 ± 0.16 | 25.7 ± 1.4 | 33.5 | 42.3 | 20.1 ± 1.57 | 26.6 ± 2.41 | 11.5 | 14.3 | 12.2 | 33.6 | 43.5 |  |  |  |  |  |  |  | 
Cn1cc(CC(NC(=O)[O][Pt]23([O]C(=O)NCCCCCN4C(=O)CCC4=O)([NH]C4CCCCC4[NH]2)[O]C(=O)C(=O)[O]3)C(=O)O)c2ccccc21 [SucCa/IdoCa, (OC-6-24)-[(R)-(1-Carboxy-2-(1-methyl-1H-indol-3-yl)ethyl)carbamato][(1R,2R)-1,2-cyclohexanediamino][(5-(2,5-dioxopyrrolidin-1-yl)pentyl)carbamato]oxalatoplatinum(IV)] |  |  | 38.8 ± 3.84 | > 100 | 43.6 | 82.5 | 43.3 ± 2.1 | > 100 | 24.7 |  | 81.2 | > 100 | > 100 | ≥2.6 | 1.89 | ≥2.3 | ≥ 4 | > 100 | > 100 | 54.6 ± 14.1 | log D7.4 [8]: –1.49; complex intact after 6 h [9]: 90%; albumin binding in serum (in words) (albumin): significant binding to albumin (tR ~4 min) could be observed for any of the compounds; still present as platinum(IV) species after 72 h (SKOV3 cell lysates): ~50%
CC(=O)[O][Pt]1([O]C(=O)NCCCCCN2C(=O)CCC2=O)[O]C(=O)C(=O)[O]1.N[C@@H]1CCCC[C@H]1N [SucCa/OAc, (OC-6-34)-Acetato[(1R,2R)-1,2-cyclohexanediamine]oxalato[(5-(2,5-dioxopyrrolidin-1-yl)pentyl)carbamato]platinum(IV)] |  |  | 28.2 ± 1.81 | 75.21 ± 0.11 | 40.4 | 55.2 | 34 ± 1.58 | > 100 | 21.8 | 42 | 50.8 | > 100 | > 100 | 2.67 | 1.37 | ≥2.9 | 1.93 | > 100 | > 100 | 29.7 ± 0.3 | 

Reference: PMC8404199, “Structure–Activity Relationships of Triple-Action Platinum(IV) Prodrugs with Albumin-Binding Properties and Immunomodulating Ligands” (Journal of Medicinal Chemistry, 2021)
